Measured values reported in patent US9902722B2, “Biaryl kinase inhibitors” (BRISTOL-MYERS SQUIBB COMPANY, priority 2014, dated 2018).

Target: GST-Xa-hAAK1 (Homo sapiens (Human), UniProt Q2M2I8)
Assay: AAK1 Kinase Assay;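 note: each compound tested across an eleven-point concentration series, with IC50 obtained through non-linear regression fitting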
Format: biochemical
Conditions: bacterially expressed GST-Xa-hAAK1 3.5 nM; ATP 22 μM; peptide substrate 1.5 μM; 3 hours at room temperature; Caliper LabChip 3000

Sequence of GST-Xa-hAAK1 (Q2M2I8 whole entry): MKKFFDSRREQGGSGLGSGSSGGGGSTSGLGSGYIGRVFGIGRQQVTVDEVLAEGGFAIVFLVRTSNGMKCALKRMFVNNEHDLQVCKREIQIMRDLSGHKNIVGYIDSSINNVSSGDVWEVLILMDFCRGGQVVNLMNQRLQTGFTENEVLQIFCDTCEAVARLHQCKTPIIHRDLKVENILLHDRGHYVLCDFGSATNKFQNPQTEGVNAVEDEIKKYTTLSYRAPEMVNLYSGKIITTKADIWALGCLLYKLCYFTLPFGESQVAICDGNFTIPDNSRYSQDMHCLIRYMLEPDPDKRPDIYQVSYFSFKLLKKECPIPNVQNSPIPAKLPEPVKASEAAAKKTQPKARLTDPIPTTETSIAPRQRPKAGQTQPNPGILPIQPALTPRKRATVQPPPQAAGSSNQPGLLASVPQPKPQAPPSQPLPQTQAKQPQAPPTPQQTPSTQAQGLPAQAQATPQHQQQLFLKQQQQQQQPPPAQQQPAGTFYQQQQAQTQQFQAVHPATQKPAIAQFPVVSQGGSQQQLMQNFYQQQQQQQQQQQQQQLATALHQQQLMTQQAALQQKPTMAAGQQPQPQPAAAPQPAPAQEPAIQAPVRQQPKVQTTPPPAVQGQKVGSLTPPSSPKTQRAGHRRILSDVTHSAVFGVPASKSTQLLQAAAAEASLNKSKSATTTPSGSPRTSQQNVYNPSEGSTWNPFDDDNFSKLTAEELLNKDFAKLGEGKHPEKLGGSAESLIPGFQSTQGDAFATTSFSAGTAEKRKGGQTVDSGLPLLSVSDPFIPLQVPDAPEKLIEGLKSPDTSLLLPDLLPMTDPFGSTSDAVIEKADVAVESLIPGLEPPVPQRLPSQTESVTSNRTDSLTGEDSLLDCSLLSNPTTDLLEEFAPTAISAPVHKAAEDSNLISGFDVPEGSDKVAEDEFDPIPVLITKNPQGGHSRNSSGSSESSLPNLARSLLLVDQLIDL

| SMILES | IC50 |
| --- | --- |
| COC(=O)Nc1cc(-c2cnc(OC[C@@](C)(N)CC(C)C)nc2)ccn1 [Example 211, (S)-methyl (4-(2-((2-amino-2,4-dimethylpentyl)oxy)pyrimidin-5-yl)pyridin-2-yl)carbamate] | 491 nM |
| Cc1cc(-c2ccc(OC[C@@](C)(N)CC(C)C)c(C(F)F)c2)ccn1 [Example 50, (S)-1-(2-(difluoromethyl)-4-(2-methylpyridin-4-yl)phenoxy)-2,4-dimethylpentan-2-amine] | 0.38 nM |
| CC(C)C[C@](C)(N)COc1ncc(-c2ccnc3cc(C#N)ccc23)cc1F [Example 99, (S)-4-(6-((2-amino-2,4-dimethylpentyl)oxy)-5-fluoropyridin-3-yl)quinoline-7-carbonitrile] | 31 nM |
| CC(C)C[C@](C)(N)COc1ccc(-c2cc(F)ncc2Cl)cc1C(F)(F)F [Example 40, (S)-1-(4-(5-chloro-2-fluoropyridin-4-yl)-2-(trifluoromethyl)phenoxy)-2,4-dimethylpentan-2-amine] | 8.7 nM |
| CCc1cc(-c2cc(C(F)F)c(OC[C@](C)(N)CC(C)C)cn2)ccn1 [Example 170, (R)-1-((4-(difluoromethyl)-2′-ethyl-[2,4′-bipyridin]-5-yl)oxy)-2,4-dimethylpentan-2-amine] | 285 nM |
| COC(=O)Nc1cc(-c2ccc(OC[C@@](C)(N)CC(C)C)c(C(F)(F)F)c2)ccn1 [Example 20, (S)-methyl (4-(4-((2-amino-2,4-dimethylpentyl)oxy)-3-(trifluoromethyl)phenyl)pyridin-2-yl)carbamate] | 0.34 nM |
| Cc1cc(-c2ccc(OC[C@@](C)(N)CC(C)C)c(C(F)(F)F)c2)ccn1 [Example 45, (S)-2,4-dimethyl-1-(4-(2-methylpyridin-4-yl)-2-(trifluoromethyl)phenoxy)pentan-2-amine] | 1.2 nM |
| Cc1cc(-c2ccnc3ccccc23)ncc1OC[C@@](C)(N)CC(C)C [Example 82, (S)-2,4-dimethyl-1-((4-methyl-6-(quinolin-4-yl)pyridin-3-yl)oxy)pentan-2-amine] | 0.85 nM |
| CC(C)C[C@](C)(N)COc1ccc(-c2ccnc(Cl)c2F)nc1C(F)F [Example 159, (S)-1-((2′-chloro-6-(difluoromethyl)-3′-fluoro-[2,4′-bipyridin]-5-yl)oxy)-2,4-dimethylpentan-2-amine] | 1.5 nM |
| CC(C)C[C@](C)(N)COc1cnc(-c2ccnc3cc(F)ccc23)cc1C(F)F [Example 131, (S)-1-((4-(difluoromethyl)-6-(7-fluoroquinolin-4-yl)pyridin-3-yl)oxy)-2,4-dimethylpentan-2-amine] | 0.82 nM |
| Cc1cc(-c2cc(C(F)F)c(OC[C@](N)(CF)CC(C)C)cn2)ccn1 [Example 187, (S)-1-((4-(difluoromethyl)-2′-methyl-[2,4′-bipyridin]-5-yl)oxy)-2-(fluoromethyl)-4-methylpentan-2-amine] | 2.2 nM |
| CC(=O)Nc1cc(-c2cc(F)c(OC[C@@H](N)CC(C)C)c(Cl)c2)ccn1 [Example 10, (S)—N-(4-(4-((2-amino-4-methylpentyl)oxy)-3-chloro-5-fluorophenyl)pyridin-2-yl)acetamide] | 10 nM |
| COC(=O)Nc1cc(-c2cnc(OC[C@@](C)(N)CC(C)C)c(C(F)(F)F)c2)ccn1 [Example 220, (S)-methyl (6-((2-amino-2,4-dimethylpentyl)oxy)-5-(trifluoromethyl)-[3,4′-bipyridin]-2′-yl)carbamate] | 0.38 nM |
| COC(=O)Nc1cc(-c2ccc(OC[C@@](C)(N)CC(C)C)c(Cl)n2)ccn1 [Example 66, (S)-methyl (5-((2-amino-2,4-dimethylpentyl)oxy)-6-chloro-[2,4′-bipyridin]-2′-yl)carbamate] | 0.65 nM |
| CC(C)C[C@](N)(CF)COc1ccc(-c2ccnc(C(F)F)c2)nc1C(F)F [Example 185, (R)-1-((2′,6-bis(difluoromethyl)-[2,4′-bipyridin]-5-yl)oxy)-2-(fluoromethyl)-4-methylpentan-2-amine] | 66 nM |
| Cc1nc(-c2ccnc3cc(F)ccc23)ccc1OC[C@@](C)(N)CC(C)C [Example 137, (S)-1-((6-(7-fluoroquinolin-4-yl)-2-methylpyridin-3-yl)oxy)-2,4-dimethylpentan-2-amine] | 27 nM |
| CC(C)C[C@](C)(N)COc1ncc(-c2ccnc3ccccc23)cc1C(F)F [Example 204, (S)-1-((3-(difluoromethyl)-5-(quinolin-4-yl)pyridin-2-yl)oxy)-2,4-dimethylpentan-2-amine] | 0.23 nM |
| CC(C)C[C@](C)(N)COc1ccc(-c2ccnc(C(F)F)c2)nc1C(F)F [Example 123, (S)-1-((2′,6-bis(difluoromethyl)-[2,4′-bipyridin]-5-yl)oxy)-2,4-dimethylpentan-2-amine] | 2.2 nM |
| Cc1cc(-c2cnc(OC[C@@](C)(N)CC(C)C)c(C(F)(F)F)c2)ccn1 [Example 221, (S)-2,4-dimethyl-1-((2′-methyl-5-(trifluoromethyl)-[3,4′-bipyridin]-6-yl)oxy)pentan-2-amine] | 4.1 nM |
| Cc1cc(-c2ccnc(C(F)F)c2)ncc1OC[C@@](C)(N)CC(C)C [Example 125, (S)-1-((2′-(difluoromethyl)-4-methyl-[2,4′-bipyridin]-5-yl)oxy)-2,4-dimethylpentan-2-amine] | 1.6 nM |

| SMILES | IC50 |
| --- | --- |
| COC(=O)Nc1cc(-c2ccc(OC[C@@](C)(N)CC(C)C)c(C)n2)c(F)cn1 [Example 155, (S)-methyl (5-((2-amino-2,4-dimethylpentyl)oxy)-5′-fluoro-6-methyl-[2,4′-bipyridin]-2′-yl)carbamate] | 57 nM |
| CC(C)C[C@@](C)(N)COc1ccc(-c2ccnc(C(F)F)c2)nc1C(F)F [Example 174, (R)-1-((2′,6-bis(difluoromethyl)-[2,4′-bipyridin]-5-yl)oxy)-2,4-dimethylpentan-2-amine] | 54 nM |
| CC(C)C[C@](C)(N)COc1ccc(-c2ccnc(F)c2)cc1C#N [Example 94, (S)-2-((2-amino-2,4-dimethylpentyl)oxy)-5-(2-fluoropyridin-4-yl)benzonitrile] | 4.7 nM |
| CC(=O)Nc1cc(-c2ccc(OC[C@@H](N)CC(C)C)c(C(F)(F)F)c2)ccn1 [Example 5, (S)—N-(4-(4-((2-amino-4-methylpentyl)oxy)-3-(trifluoromethyl)phenyl)pyridin-2-yl)acetamide] | 0.5 nM |
| CC(=O)Nc1cc(-c2cc(F)c(OC[C@@H](N)CC(C)C)c(C(F)(F)F)c2)ccn1 [Example 11, (S)—N-(4-(4-((2-amino-4-methylpentyl)oxy)-3-fluoro-5-(trifluoromethyl)phenyl)pyridin-2-yl)acetamide] | 3.3 nM |
| COC(=O)Nc1cc(-c2ccc(OC[C@@](C)(N)CC(C)C)c(C(F)F)n2)ccn1 [Example 117, (S)-methyl (5-((2-amino-2,4-dimethylpentyl)oxy)-6-(difluoromethyl)-[2,4′-bipyridin]-2′-yl)carbamate] | 1 nM |
| CC(C)C[C@](N)(CF)COc1cnc(-c2ccnc(C(F)F)c2)cc1C(F)F [Example 186, (R)-1-((2′,4-bis(difluoromethyl)-[2,4′-bipyridin]-5-yl)oxy)-2-(fluoromethyl)-4-methylpentan-2-amine] | 18 nM |
| CC(C)C[C@](C)(N)COc1cnc(-c2ccnc3ccc(C(F)(F)F)cc23)cc1C(F)F [Example 133] | 0.92 nM |
| COC(=O)Nc1cc(-c2cc(C(F)F)c(OC[C@@](C)(O)CC(C)C)cn2)ccn1 [Example 177, (S)-methyl (4-(difluoromethyl)-5-((2-hydroxy-2,4-dimethylpentyl)oxy)-[2,4′-bipyridin]-2′-yl)carbamate] | 8.7 nM |
| CC(C)C[C@](C)(N)COc1cnc(-c2ccnc3ccccc23)cc1Cl [Example 236, (S)-1-((4-chloro-6-(quinolin-4-yl)pyridin-3-yl)oxy)-2,4-dimethylpentan-2-amine] | 0.98 nM |
| CCc1cc(-c2cc(C(F)F)c(OC[C@@](C)(N)CC(C)C)cn2)ccn1 [Example 141, (S)-1-((4-(difluoromethyl)-2′-ethyl-[2,4′-bipyridin]-5-yl)oxy)-2,4-dimethylpentan-2-amine] | 1.8 nM |
| CC(C)C[C@](C)(N)COc1ncc(-c2ccnc3cc(Cl)ccc23)cc1C(F)F [Example 197, (S)-1-((5-(7-chloroquinolin-4-yl)-3-(difluoromethyl)pyridin-2-yl)oxy)-2,4-dimethylpentan-2-amine] | 0.31 nM |
| CC(C)C[C@](C)(N)COc1cnc(-c2ccnc(Cl)c2)cc1C(F)F [Example 147, (S)-1-((2′-chloro-4-(difluoromethyl)-[2,4′-bipyridin]-5-yl)oxy)-2,4-dimethylpentan-2-amine] | 0.56 nM |
| CC(=O)Nc1cc(-c2ccc(OC[C@@H](N)CC(C)C)c(F)c2)ccn1 [Example 1, (S)—N-(4-(4-((2-amino-4-methylpentyl)oxy)-3-fluorophenyl)pyridin-2-yl)acetamide] | 2.7 nM |
| Cc1cc(-c2cc(C(F)(F)F)c(OC[C@](C)(N)CC(C)C)cn2)ccn1 [Example 164, (R)-2,4-dimethyl-1-((2′-methyl-4-(trifluoromethyl)-[2,4′-bipyridin]-5-yl)oxy)pentan-2-amine] | 254 nM |
| CC(C)C[C@](C)(N)COc1cnc(-c2ccnc3cc(F)ccc23)cc1Cl [Example 241, (S)-1-((4-chloro-6-(7-fluoroquinolin-4-yl)pyridin-3-yl)oxy)-2,4-dimethylpentan-2-amine] | 0.86 nM |
| COC(=O)Nc1cc(-c2ccc(OCC(C)(N)CC(C)C)c(Cl)c2)ccn1 (stereo not drawn) [Example 29, methyl (4-(4-((2-amino-2,4-dimethylpentyl)oxy)-3-chlorophenyl)pyridin-2-yl)carbamate] | 0.67 nM |
| COC(=O)Nc1cc(-c2ncc(OC[C@@](C)(N)CC(C)C)cn2)ccn1 [Example 210, (S)-methyl (4-(5-((2-amino-2,4-dimethylpentyl)oxy)pyrimidin-2-yl)pyridin-2-yl)carbamate] | 79 nM |
| COC(=O)Nc1cc(-c2ccc(OC[C@@](C)(N)CC(C)C)c(F)c2)ccn1 [Example 28, (S)-methyl (4-(4-((2-amino-2,4-dimethylpentyl)oxy)-3-fluorophenyl)pyridin-2-yl)carbamate] | 1.2 nM |
